Test results: US7772192B2, “Compositions and methods for treatment of disease with acetylated disaccharides” (The Regents of the University of California, priority 2003, dated 2010)

Test system: cell-surface sLe^X of LS180 cells
Assay: Flow cytometry of cell-surface sLe^X (CSLEX-1)
Format: cell-based, human
Conditions: 50 μM
Experimental: Peracetylated forms of GlcNAcβ1,3Galβ-O-naphthalenemethanol (AcGnG-NM) and Galβ1,3Galβ-O-naphthalenemethanol (AcGG-NM) were prepared as described. Sarkar, et al., Carbohydr. Res., 329, 287-300, 2000. The compounds were dissolved in dimethylsulfoxide (DMSO) and added to growth medium to achieve the concentrations indicated in the figures. The supplemented medium was then exchanged for the medium in established cultures of cells in order to avoid lysis caused by adding concentrated DMSO directly to the plates. The final concentration of DMSO was adjusted to ≦0.5% (v/v). After the specified number of days, the cells were harvested with 2 mM EDTA in PBS (20 min) and used for the following experiments.
Cell Sorting. To detect the presence or absence of the relevant carbohydrate determinants, cells were stained with CSLEX-1 (anti-sLe^X, 5 μg/mL, Becton-Dickinson) or CA-19-9 ([…], 14.5 μg/mL, Chemicon) and analyzed by flow cytometry (FACScan Becton-Dickinson, Franklin Lakes, N.J.). […]
Treatment of LS180 cells with AcGnG-NM reduces cell-surface sLe^X, but not sLe^a. […] LS180 cells were grown in the presence of 50 μM AcGnG-NM, harvested with EDTA, stained with monoclonal antibodies (CSLEX-1, anti-sLe^X and CA19-9, anti-sLe^a) as indicated and analyzed by flow cytometry (Materials and Methods). […]

GlcNAcβ1,3Galβ-O-naphthalenemethanol [AcGnG-NM]
cell-surface sLe^X: significant inhibition
